Patent publication US7968602B2, “4-[(E)-2-(5,6,7,8-tetrahydro-5,5,8,8-tetramethyl-2-napthalenyl)-1-propenyl]benzoic acid analogs and method of manufacture and use thereof” (Wisconsin Alumni Research Foundation, priority 2005, dated 2011)
“Also recorded” adds a separate entry of the source.

Columns and labels:
RXRgamma = target: T1, RXRgamma (Mus musculus, UniProt P28705); assay: Nuclear RXR competition binding assay ([3H]-9-cis-RA, hydroxylapatite); design: species or system murine; conditions: for competition binding to RXRs: compared with 4-HPTTNPB, studies 'may be performed'
T1 construct: made in house; host or cells: insect cells infected with baculovirus expression vectors; nuclear extracts
T1 sequence (P28705 1-463): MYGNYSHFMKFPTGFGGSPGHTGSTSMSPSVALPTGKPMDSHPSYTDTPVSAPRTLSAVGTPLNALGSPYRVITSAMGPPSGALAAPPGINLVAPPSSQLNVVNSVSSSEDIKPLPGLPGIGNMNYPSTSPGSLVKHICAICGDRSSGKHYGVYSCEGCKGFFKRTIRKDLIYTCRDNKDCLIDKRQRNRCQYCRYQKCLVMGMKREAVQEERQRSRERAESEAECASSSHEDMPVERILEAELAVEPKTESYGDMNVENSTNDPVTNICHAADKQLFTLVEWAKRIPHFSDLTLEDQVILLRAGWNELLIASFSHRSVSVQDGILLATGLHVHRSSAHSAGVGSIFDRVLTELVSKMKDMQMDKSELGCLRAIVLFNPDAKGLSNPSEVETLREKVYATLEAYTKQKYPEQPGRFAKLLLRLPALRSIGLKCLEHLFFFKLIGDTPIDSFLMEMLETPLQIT
Method: Nuclear Retinoid Receptor (RAR/RXR) Binding. Competition of retinoids with [^3H]-all-trans-RA for binding to RARalpha, RARbeta and RARgamma and with [^3H]-9-cis-RA for binding to RXRgamma was determined using an in vitro ligand binding assay. […] Radiolabeled ligands were added to receptor-containing extracts in the absence and presence of increasing concentrations of competing ligands followed by separating ligand bound to the receptor from that free in solution using a hydroxylapatite (HAP) assay.

[1] = system: F9-RARE-lacZ reporter cell line; assay: F9 reporter gene assay; assay type: cell-based; conditions: for potency in activating the reporter system compared with atRA and TTNPB: versus atRA and TTNPB
From the text: Reporter gene assay. […] Data were normalized for total protein using the method set forth in Bradford M M, Anal Biochem, 72:248-254 (1976).

MCF-7 cells [2] = assay: Cell growth inhibition assay; assay type: cell-based, human; conditions: for response of MCF-7 cells (live cells / cell death): single treatment, 72 hours; for cell growth inhibition, MCF-7: compared with 4-HPTTNPB, assays 'may be performed'
Method: (§1) Cell growth inhibition and TUNEL assays. […] The cells were plated at 50,000 cells/well in 12-well plates. The wells were dosed with varying amounts of retinoid compounds. At cell harvest, propidium iodide was added. Half of the cells were used to determine the number of live and dead cells after adding fluorescein diacetate, which yields a fluorescent product upon cleavage by metabolically active cells. The other half were fixed in 4% paraformaldehyde, dried on aminosilane coated slides and used to determine TUNEL and propidium iodide staining.
Cell culture. The human mammary carcinoma cell line, MCF-7, may be obtained from the American Type Culture Collection (Mannassas, Va.). MCF-7 cells may be maintained in DMEM (Sigma-Aldrich) medium supplemented with 4 g/L glucose, 3.7 g/L sodium bicarbonate and 10% fetal calf serum.
Assay for cell growth inhibition. Cells are plated in flasks/wells of a tissue culture dish. After 24 hours, cells are dosed with a compound of the present invention at varying concentrations, and after 72 hours, the cells are removed from flasks/plates and counted. Fluorescence (due to staining of cells with fluorescein diacetate) was used to count the number of live cells. Phase-contrast microscopy is used to count the total number of cells.

[3] = system: T2, RARalpha, RARbeta and RARgamma; assay: Nuclear RAR competition binding assay ([3H]-all-trans-RA, hydroxylapatite); design: species or system human RARalpha and RARgamma, murine RARbeta; conditions: for competition with [3H]-all-trans-RA for binding to the RARs: RAR types alpha, beta and gamma, stated collectively; for competition binding to RARs: compared with 4-HPTTNPB, studies 'may be performed'
T2 construct: fused on or other part: RARalpha was expressed as a fusion protein in E. coli
Method: Nuclear Retinoid Receptor (RAR/RXR) Binding. Competition of retinoids with [^3H]-all-trans-RA for binding to RARalpha, RARbeta and RARgamma and with [^3H]-9-cis-RA for binding to RXRgamma was determined using an in vitro ligand binding assay. (See Clagett-Dame et al., Methods for generating and characterizing retinoid receptors from E. coli and insect cell expression systems, Meth. Enzymol., 282:13-14 (1997)). Recombinant human RARalpha was expressed as a fusion protein in E. coli (see Repa J J et al., All-trans retinol is a ligand for the retinoic acid receptors, Proc Natl Acad Sci USA, 90:7293-7297 (1993)). […] Radiolabeled ligands were added to receptor-containing extracts in the absence and presence of increasing concentrations of competing ligands followed by separating ligand bound to the receptor from that free in solution using a hydroxylapatite (HAP) assay.

MCF-7 cells [4] = assay: TUNEL assay (DNA fragmentation); assay type: cell-based, human; conditions: for induction of apoptosis / DNA fragmentation: MCF-7 cells, 72 hours, 4-HPTTNPB and 4-HBTTNPB at the highest doses; for activity in DNA fragmentation study: compared with 4-HPTTNPB, studies 'may be performed'
Method: as §1

[5] = system: DMBA-induced mammary tumors; assay: Inhibition of DMBA-induced mammary tumors; assay type: in vivo; conditions: studies 'may be performed'
pregnant rats = assay: Assessment of compound teratogenicity; assay type: in vivo; conditions: for teratogenic activity / fetal malformations: 0.66 micomoles/kg single oral bolus at E9.25, fetuses at E21.5
Method: Assessment of Compound Teratogenicity. Female rats (Harlan Sprague-Dawley, Madison, Wis. approximately 200 to 250 g in weight) were maintained on normal laboratory rat chow and mated with normal rats of the same strain. Pregnant rats were given a single oral bolus dose of compound dissolved in Wesson® corn oil. Each dose was 60-100 μL. The doses were given at day 9.25. Each […] was maintained under standard laboratory conditions until euthanasia at embryonic day 21.5. The fetuses were removed. Fetuses with a heartbeat were determined to be alive. The number of live and dead fetuses were recorded. The number of resorption sites was also recorded. The live fetuses were examined for gross external malformations. All animals were maintained in accordance with protocol approved by the University of Wisconsin-Madison animal care committee.

[6] = TTNPB: at concentrations above 10^-6 M, 4-HPTTNPB and 4-HPR: at the highest concentration

CC1=C(/C=C/C(C)=C/C=C/C(C)=C/C(=O)Nc2ccc(O)cc2)C(C)(C)CCC1 [4-HPR, N-(4-hydroxyphenyl) retinamide, reference compound]
competition with [3H]-9-cis-RA for binding to RXRgamma (RXRgamma; [6]): almost no competition
potency in activating the reporter system compared with atRA and TTNPB [1]: approximately 1000 fold less potent
response of MCF-7 cells (live cells / cell death) (MCF-7 cells [2]): cell death
competition with [3H]-all-trans-RA for binding to the RARs [3]: only weak competition
potency of competition for RAR binding compared with TTNPB ([3]; versus TTNPB): 3-4 orders of magnitude less potent
induction of apoptosis / DNA fragmentation (MCF-7 cells [4]): high degree of apoptosis

C/C(=C\c1ccc(C(=O)Cc2ccc(O)cc2)cc1)c1ccc2c(c1)C(C)(C)CCC2(C)C [4-HBTTNPB, E-4-[2-methyl-2-(1,1,4,4-tetramethyl-1,2,3,4-tetrahydronapth-7-yl)-vinyl]-phenyl-2′-(4′-hydroxyphenyl)-1′-ethanone]
competition binding to RXRs (RXRgamma): only slight binding competition
toxicity in DMBA-induced mammary tumor studies [5]: little, if any, toxicity
cell growth inhibition, MCF-7 (MCF-7 cells [2]; listed as 23): inhibits growth of MCF-7 cells in a dose-dependent manner
response of MCF-7 cells (live cells / cell death) (MCF-7 cells [2]): dose-dependent decrease
teratogenic activity / fetal malformations (pregnant rats): devoid of any observable teratogenic activity
teratogenic potential / embryotoxicity (pregnant rats; 'the data will demonstrate'): little, if any, observable embrotoxicity
number of dead and resorbed fetuses compared with vehicle group (pregnant rats; rat, in vivo, po): did not differ
competition with [3H]-all-trans-RA for binding to the RARs [3]: competed poorly
competition binding to RARs [3]: bind only very weakly
induction of apoptosis / DNA fragmentation (MCF-7 cells [4]): very active
activity in DNA fragmentation study (MCF-7 cells [4]): activity similar to 4-HPTTNPB

C=C(c1ccc(C(=O)O)cc1)c1cc2c(cc1C)C(C)(C)CCC2(C)C [LGD1069, reference compound]
competition with [3H]-9-cis-RA for binding to RXRgamma (RXRgamma; [6]): very effective

C/C(=C\c1ccc(C(=O)Cc2ccc(OC3OC(C(=O)O)C(O)C(O)C3O)cc2)cc1)c1ccc2c(c1)C(C)(C)CCC2(C)C (stereo not shown) [Compound 25]
competition binding to RXRs (RXRgamma): no better at binding to RXRs than 4-HPTTNPB
toxicity in DMBA-induced mammary tumor studies [5]: little, if any, toxicity
cell growth inhibition, MCF-7 (MCF-7 cells [2]): inhibits growth of MCF-7 cells in a dose-dependent manner; also recorded: less active than 4-HPTTNPB
teratogenic potential / embryotoxicity (pregnant rats; 'the data will demonstrate'): little, if any, observable embrotoxicity
competition binding to RARs [3]: only slightly better at binding to RARs than 4-HPTTNPB
activity in DNA fragmentation study (MCF-7 cells [4]): less active than 4-HPTTNPB

C/C(=C\c1ccc(C(=O)Cc2ccc(O[C@@H]3O[C@H](CO)[C@@H](O)[C@H](O)[C@H]3O)cc2)cc1)c1ccc2c(c1)C(C)(C)CCC2(C)C [Compound 33, E-4-[2-methyl-2-(1,1,4,4-tetramethyl-1,2,3,4-tetrahydronaphth-7-yl)-vinyl]-phenyl-2′-(4′-beta-D-glucopyranosyloxyphenyl)-1′-ethanone]
competition binding to RXRs (RXRgamma): no better at binding to RXRs than 4-HPTTNPB
toxicity in DMBA-induced mammary tumor studies [5]: little, if any, toxicity
cell growth inhibition, MCF-7 (MCF-7 cells [2]): inhibits growth of MCF-7 cells in a dose-dependent manner
teratogenic potential / embryotoxicity (pregnant rats; rat, in vivo): little, if any, observable embrotoxicity
competition binding to RARs [3]: only slightly better at binding to RARs than 4-HPTTNPB

C/C(=C\c1ccc(C(=O)O)cc1)c1ccc2c(c1)C(C)(C)CCC2(C)C [TTNPB, E-4-[2-methyl-2-(1,1,4,4-tetramethyl-1,2,3,4-tetrahydronapth-7-yl)-vinyl]-benzoic acid, reference compound]
competition with [3H]-9-cis-RA for binding to RXRgamma (RXRgamma; [6]): very weak competition
competition with [3H]-9-cis-RA for binding to RXRgamma (RXRgamma; at 10^-4.5 M): 44%
activity in the F9 reporter assay (beta-galactosidase) [1]: highly active
response of MCF-7 cells (live cells / cell death) (MCF-7 cells [2]): nearly ineffective
competition with [3H]-all-trans-RA for binding to the RARs [3]: very effective
induction of apoptosis / DNA fragmentation (MCF-7 cells [4]): ineffective

C/C(=C\c1ccc(C(=O)Nc2ccc(O)cc2)cc1)c1ccc2c(c1)C(C)(C)CCC2(C)C [4-HPTTNPB, E-4-[2-methyl-2-(1,1,4,4-tetramethyl-1,2,3,4-tetrahydronapth-7-yl)-vinyl]-benzoic acid 4-hydroxyanilide]
competition with [3H]-9-cis-RA for binding to RXRgamma (RXRgamma; [6]): almost no competition
potency in activating the reporter system compared with atRA and TTNPB [1]: around 100 fold less potent
response of MCF-7 cells (live cells / cell death) (MCF-7 cells [2]): dose-dependent decrease
teratogenic activity / fetal malformations (pregnant rats): all profoundly malformed
percentage of the fetuses at embryonic day 21.5 either dead or resorbed (pregnant rats; 0.66 micomoles/kg single oral bolus at E9.25, three pregnant rats): > 80%
competition with [3H]-all-trans-RA for binding to the RARs [3]: competed poorly; also recorded: did not show any significant binding
induction of apoptosis / DNA fragmentation (MCF-7 cells [4]): very active

CC1=C(/C=C/C(C)=C/C=C/C(C)=C/C(=O)O)C(C)(C)CCC1 [atRA, all-trans retinoic acid, reference compound]
activity in the F9 reporter assay (beta-galactosidase) [1]: highly active

CCCc1cc2c(cc1/C(C)=C/c1ccc(C(=O)Nc3ccc(O)cc3)cc1)C(C)(C)CCC2(C)C [Compound 12, E-4-[2-methyl-2-(6-propyl-1,1,4,4-tetramethyl-1,2,3,4-tetrahydronapth-7-yl)-vinyl]-benzoic acid 4-hydroxyanilide]
competition binding to RXRs (RXRgamma): only slight binding competition
cell growth inhibition, MCF-7 (MCF-7 cells [2]): inhibits growth of MCF-7 cells in a dose-dependent manner
competition binding to RARs [3]: bind only very weakly
